# Test system: tyrosinase de champignons
# Assay: in vitro tyrosinase activity inhibition test (dopachrome formation followed at 475 nm)
# Assay type: biochemical
# Details: lowering of maximal dopachrome formed (OD 475 nm at plateau) vs no inhibitor; inhibitor at 50 % molaire relative to tyrosine; pH 6,5; 25°C
# Excerpt: Certains des composés de formule générale (I) ont été étudiés comparativement à l'hydroquinone à quantité molaire équivalente dans le test d'inhibition in vitro de l'activité de la tyrosinase.
# Selon ce test on suit par spectrométrie visible à 475 nm la quantité de dopachrome formée au cours de la chaîne de réactions de transformation de la tyrosine en mélanines. Ces réactions sont catalysées in vitro par la tyrosinase de champignons, en présence d'un co-substrat réducteur (par exemple la L-dopa en petite quantité) pour initier la réaction d'hydroxylation de la L-tyrosine en L-dopa, laquelle est ensuite oxydée catalytiquement en dopaquinone puis en dopachrome, produit intermédiaire avant les réactions d'oxydation non enzymatiques aboutissant à la formation des mélanines.
# On mesure donc la concentration en dopachrome formé au cours du temps en présence et en absence de l'inhibiteur.
# Les concentrations en inhibiteurs sont fixées à 50 % molaire par rapport à la concentration en tyrosine dans le milieu réactionnel.
# On exprime l'effet d'inhibition par l'abaissement de la quantité maximale de dopachrome formée (valeur de densité optique à 475 nm lue au plateau de la courbe) par rapport à la quantité obtenue en l'absence d'inhibiteur.
# • A - Tampon phosphate 0,1 M pH = 6,5 (Tween 20 à 1 %) • B - Solution mère de L-tyrosine à 2.10^-3 M dans A • C - Solution mère de L-dopa à 10^-4 M dans A • D - Solution mère de tyrosinase de champignons à 2.400 unités/ml dans A • E - Solution mère de l'inhibiteur à 10^-2 M dans A (les solutions C et D sont à préparer le jour même)
# • cuve de référence : 3 ml de A • cuve d'essai : 1 ml de B 0,1 ml de C 1,85ml de A + E • homogénéiser et équilibrer à 25°C • ajouter 0,05 ml de D • mélanger rapidement et observer la cinétique par la mesure de l'absorbance à 475 nm en fonction du temps.
row,% change in maximal dopachrome formed vs no inhibitor,SMILES
1,-47%,Oc1ccc2c(O)cccc2c1 [[drawing] r3]
2,-91%,Oc1ccc2cc(O)ccc2c1 [[drawing] r4]

row,SMILES,% change in maximal dopachrome formed vs no inhibitor
1,"Oc1ccc(O)cc1 [hydroquinone, reference compound]",-33%
